Legend:
Format in all cases: cell-based, human
[1] = tested on: TCR NYN-3 (Jurkat E6-1 TPR cells)
[2] = tested on: TCR NYN-1 (Jurkat E6-1 TPR cells)
[3] = tested on: TCR NYN-2 (Jurkat E6-1 TPR cells)
[4] = tested on: NYN peptide-specific TCRs (NYN-1 to NYN-4 Jurkat E6-1 TPR cell lines)

Sequence | effect of the mutation on response / affinity of NYN-3 (in words) [1] | effect of the mutation on response / affinity of NYN-1 (in words) [2] | effect of the mutation on response / affinity of NYN-2 (in words) [3] | effect of the mutation on the T-cell response / recognition (in words) [4]
NYDYMYRLF [N450D + L452M] | slightly disrupted the response | not | slightly disrupted the response | 
NYDYWYRLF [N450D + L452W] | increased the affinity |  | increased the affinity | did not affect the T-cell response

— PMC11641755, “Features of Highly Homologous T-Cell Receptor Repertoire in the Immune Response to Mutations in Immunogenic Epitopes” (International Journal of Molecular Sciences, 2024)
